The target in assay [1] is T1, human CB1 receptor (Homo sapiens, UniProt P21554).
T1 construct: host or cells: CHO-K1
The assay is described as follows: CB1 radioligand competitive binding assay ([3H]CP 55,940 displacement). The following applies: for IC50: displacement of 0.8 nM [3H]CP 55,940, membranes of CHO-K1 cells expressing human CB1 receptor; for Selectivity CB1: fold difference between CB1 and CB2 binding, (CB1 over CB2).

In assay [2] the target is T2, human CB2 receptor (Homo sapiens, UniProt P34972).
T2 construct: host or cells: CHO-K1
Description: CB2 radioligand competitive binding assay ([3H]CP 55,940 displacement). The following applies: for IC50: displacement of 0.6 nM [3H]CP55,940, membranes of CHO-K1 cells expressing human CB2 receptor; for Selectivity CB2: fold difference between CB1 and CB2 binding, the receptor with higher binding affinity (CB2 over CB1). The procedure:
Compounds of the present disclosure were tested for CB1 receptor binding affinity and for CB2 receptor binding affinity. As used herein, “binding affinity” is represented by the IC50 value, which was experimentally determined as described herein. The lower the IC50 value the higher the binding affinity. A compound of the present disclosure may be said to have “binding selectivity” if it has a higher binding affinity for one receptor compared to the other.
The membranes were prepared from CHO-K1 (Chinese hamster ovary) cells stably transfected with the human CB2 receptor (Cat. #ES-111-C; Perkin Elmer, Boston, Mass.). The cells were grown adherently and maintained in Ham's F12 medium containing 10% fetal bovine serum (FBS), penicillin, streptomycin and geneticin (G418) at 37° C. in a humid atmosphere of 5% CO2 following the manufacturer's instructions.
For membrane preparation the cells were washed with PBS and scraped off the plates in cold homogenization buffer (25 mM HEPES (pH 7.4), 2 mM EDTA) containing protease inhibitor cocktail (Sigma Cat. #P8340). The cell suspension was homogenized with a Pro-PK-01200D Polytron Homogenizer (Pro Scientific) and then centrifuged for 30 min at 120,000×g. The supernatant was discarded and the pellet was re-suspended in the homogenization buffer and stored at −80° C. until the time of use.
In this experiment, 3H radiolabeled CP 55,940, i.e. [3H]CP 55,940 (Perkin Elmer, Boston, Mass.), was used as a radioligand for the CB2 receptor to determine the binding affinity of compounds for the CB2 receptor (Scheme 6; above).
The competition binding experiments (single dose and dose-response) were performed by incubating 0.6 nM of [3H]CP55,940 (specific activity 101 Ci/mmol, Perkin Elmer) and different concentrations of compounds disclosed herein with membranes prepared as above from CHO-K1 cells expressing human CB2 receptor (1 μg of protein/well), 50 mM Tris-HCl (pH 7.4), 5 mM MgCl2, 1 mM CaCl2, and 2 mg/mL BSA.
For the single dose experiments, the compound stocks (usually 10 mM in DMSO) were diluted to working stocks in the binding buffer to give the final compound concentrations of 10 μM and 1 μM. For the dose-response experiments the test compounds were sequentially diluted to provide the desired concentration range for the […] determination. In each case the compounds were pre-incubated with the membrane for 20 min, before adding the radioligand.
After incubation with the radioligand for 60 min at 37° C., the incubation was terminated by rapid filtration of assay mixture through MultiScreen®HTS^+ 96-well filter plates (Millipore, Cat. #MSFCNXB), pre-soaked for 60 min with 50 mM Tris-HCl (pH 7.4) containing 0.33% polyethylenimine (PEI). The nonspecific binding (NSB) was determined in the presence of 10 μM unlabelled CP55,940. After drying the filter plate at 50° C. for at least 60 min, the filter-bound radioactivity was determined by scintillation spectrometry using the 1450 MicroBeta Plate Counter (Perkin Elmer, Boston, Mass.). From the dose-response experiments, the IC50 values were determined (see Table 1, CB2 IC50).
Where the test compound had about the same affinity for both receptors, this is represented by a value of 1.00 in the column for both receptors.

Structures are written as SMILES.

T2 sequence (P34972 whole entry): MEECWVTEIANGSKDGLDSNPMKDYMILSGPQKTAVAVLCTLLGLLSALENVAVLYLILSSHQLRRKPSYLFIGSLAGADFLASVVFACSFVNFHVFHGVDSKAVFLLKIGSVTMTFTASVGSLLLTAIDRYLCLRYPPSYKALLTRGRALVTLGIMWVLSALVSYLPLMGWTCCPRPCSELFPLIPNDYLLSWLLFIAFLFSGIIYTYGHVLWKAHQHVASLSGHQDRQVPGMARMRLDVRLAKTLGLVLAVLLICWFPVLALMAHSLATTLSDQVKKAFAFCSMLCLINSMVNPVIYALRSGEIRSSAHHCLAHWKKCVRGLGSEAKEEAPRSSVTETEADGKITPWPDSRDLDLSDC
T1 sequence (P21554 whole entry): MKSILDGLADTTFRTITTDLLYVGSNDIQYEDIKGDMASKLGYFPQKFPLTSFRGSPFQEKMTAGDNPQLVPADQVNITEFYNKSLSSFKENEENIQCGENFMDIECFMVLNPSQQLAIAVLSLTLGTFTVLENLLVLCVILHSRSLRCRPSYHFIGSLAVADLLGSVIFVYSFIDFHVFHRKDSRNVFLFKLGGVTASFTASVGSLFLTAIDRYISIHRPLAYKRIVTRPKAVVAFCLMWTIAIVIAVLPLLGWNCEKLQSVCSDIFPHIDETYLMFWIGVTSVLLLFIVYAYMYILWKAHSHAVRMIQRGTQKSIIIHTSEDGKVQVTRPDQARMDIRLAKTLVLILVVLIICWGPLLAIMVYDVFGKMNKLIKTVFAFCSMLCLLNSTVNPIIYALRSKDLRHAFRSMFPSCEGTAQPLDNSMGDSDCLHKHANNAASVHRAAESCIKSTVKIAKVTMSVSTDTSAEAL

As a reminder, the IC50 is the point on the concentration scale where inhibition reaches its midpoint. `CCCCCc1cc(O)c(C/C=C(\C)CCC=C(C)C)c(O)c1-c1ccnn1C` [Compound 35, (E)-2-(3,7-dimethylocta-2,6-dien-1-yl)-4-(1-methyl-1H-pyrazol-5-yl)-5-pentylbenzene-1,3-diol] came in with an IC50 in assay [1] of 1000 to 4990 nM. Moreover, in assay [2], the half-inhibitory concentration (IC50) was 1000 to 4990 nM and the “Selectivity CB2” value is listed as 1.21 fold.

Turning to `CCCCCc1cc(O)c(C/C=C(\C)CCC=C(C)C)c(O)c1-c1ccc2nccnc2c1` [Compound 40, 2-(3,7-dimethylocta-2,6-dien-1-yl)-5-pentyl-4-(quinoxalin-6-yl)benzene-1,3-diol], in assay [1], the IC50 fell in the range of 500 to 990 nM and the “Selectivity CB1” value stood at 1.65 fold. Besides, the IC50 in assay [2] was 1000 to 4990 nM.

For the compound `CCCCCc1cc(O)c(C/C=C(\C)CCC=C(C)C)c(O)c1-c1cccc(N2CCOCC2)c1` [Compound 36, 3-(3,7-dimethylocta-2,6-dien-1-yl)-3′-morpholino-6-pentyl-[1,1′-biphenyl]-2,4-diol], in assay [1], the concentration for half-maximal inhibition (IC50) is under 500 nM. Moreover, in assay [2], the half-inhibitory concentration (IC50) was under 500 nM and the “Selectivity CB2” value was determined as 8.93 fold.

For `CCCCCc1cc(O)c(C/C=C(\C)CCC=C(C)C)c(O)c1-c1ccsc1` [Compound 17, 2-(3,7-dimethylocta-2,6-dien-1-yl)-5-pentyl-4-(thiophen-3-yl)benzene-1,3-diol], the figures for the 50% inhibitory concentration (IC50) in assay [1] and in assay [2] were 1000 to 4990 nM and 500 to 990 nM, respectively. Further, the “Selectivity CB2” value in assay [2] is 2.10 fold.

In assay [1], `CCCCCc1cc(O)c(C/C=C(\C)CCC=C(C)C)c(O)c1-c1cncnc1` [Compound 13, 2-(3,7-dimethylocta-2,6-dien-1-yl)-5-pentyl-4-(pyrimidin-5-yl) benzene-1,3-diol] showed an IC50 of 1000 to 4990 nM. In addition, in assay [2], the 50% inhibitory concentration (IC50) fell in the range of 1000 to 4990 nM and the “Selectivity CB2” value stood at 1.85 fold.

`CCCCCc1cc(O)c(C/C=C(\C)CCC=C(C)C)c(O)c1-c1cnc2ccccc2c1` [Compound 42, 2-(3,7-dimethylocta-2,6-dien-1-yl)-5-pentyl-4-(quinolin-3-yl) benzene-1,3-diol]: in assay [1], the IC50 lay within 500 to 990 nM and the “Selectivity CB1” value is listed as 2.69 fold. In assay [2], this compound displayed an IC50 of 1000 to 4990 nM.

For the compound `CCCCCc1cc(O)c(C/C=C(\C)CCC=C(C)C)c(O)c1-c1ccc2[nH]ncc2c1` [Compound 41, 2-(3,7-dimethylocta-2,6-dien-1-yl)-4-(1H-indazol-5-yl)-5-pentylbenzene-1,3-diol], in assay [1], the IC50 is under 500 nM and the “Selectivity CB1” value is reported as 79.18 fold. Also, the half-maximal inhibitory concentration (IC50) in assay [2] was in the range of 500 to 990 nM.

For `CCCCCc1cc(O)c(C/C=C(\C)CCC=C(C)C)c(O)c1-c1cn[nH]c1` [Compound 38, 2-(3,7-dimethylocta-2,6-dien-1-yl)-5-pentyl-4-(1H-pyrazol-4-yl) benzene-1,3-diol], the IC50 in assay [1] and in assay [2] was 500 to 990 nM throughout. Further, in assay [2], the “Selectivity CB2” value worked out at 1.21 fold.

In the case of `CCCc1cc(O)c(C/C=C(\C)CCC=C(C)C)c(O)c1-c1cc2ccccc2o1` [Compound 44, 4-(benzofuran-2-yl)-2-(3,7-dimethylocta-2,6-dien-1-yl)-5-propylbenzene-1,3-diol], in assay [1], the concentration for half-maximal inhibition (IC50) is 500 to 990 nM and the “Selectivity CB1” value turned out to be 1.67 fold. Besides, the 50% inhibitory concentration (IC50) in assay [2] was in the range of 1000 to 4990 nM.

Consider `CCCCCc1cc(O)c(C/C=C(\C)CCC=C(C)C)c(O)c1-c1cc2ccccc2o1` [Compound 32, 4-(benzofuran-2-yl)-2-(3,7-dimethylocta-2,6-dien-1-yl)-5-pentylbenzene-1,3-diol], for which, in assay [1], the half-maximal inhibitory concentration (IC50) fell in the range of 500 to 990 nM and the “Selectivity CB1” value is 1.16 fold. The same compound came in with a concentration for half-maximal inhibition (IC50) in assay [2] of 1000 to 4990 nM.

In the case of `CCCCCc1cc(O)c(C/C=C(\C)CCC=C(C)C)c(O)c1-c1cncs1` [Compound 18, 2-(3,7-dimethylocta-2,6-dien-1-yl)-5-pentyl-4-(thiazol-5-yl) benzene-1,3-diol], the IC50 in assay [1] was in the range of 1000 to 4990 nM. For the same compound, in assay [2], the IC50 lay in the range of 500 to 990 nM and the “Selectivity CB2” value was 2.32 fold.

As to `CCCCCc1cc(O)c(C/C=C(\C)CCC=C(C)C)c(O)c1-c1ccco1` [Compound 15, 2-(3,7-dimethylocta-2,6-dien-1-yl)-4-(furan-2-yl)-5-pentylbenzene-1,3-diol], the IC50 in assay [1] and in assay [2] was 1000 to 4990 nM throughout. Moreover, the “Selectivity CB2” value in assay [2] turned out to be 2.11 fold.

In the case of `CCCCCc1cc(O)c(C/C=C(\C)CCC=C(C)C)c(O)c1-c1ccnc(C)c1` [Compound 39, 2-(3,7-dimethylocta-2,6-dien-1-yl)-4-(2-methylpyridin-4-yl)-5-pentylbenzene-1,3-diol], the 50% inhibitory concentration (IC50) in assay [1] lay within 1000 to 4990 nM. Also, in assay [2], the IC50 was 500 to 990 nM and the “Selectivity CB2” value came out at 2.18 fold.

Compound `CCCc1cc(O)c(C/C=C(\C)CCC=C(C)C)c(O)c1-c1ccsc1` [Compound 43, 2-(3,7-dimethylocta-2,6-dien-1-yl)-5-propyl-4-(thiophen-3-yl) benzene-1,3-diol] registered an IC50 in assay [1] of 1000 to 4990 nM. Moreover, in assay [2], the concentration for half-maximal inhibition (IC50) fell in the range of 500 to 990 nM and the “Selectivity CB2” value stood at 2.26 fold.

`CCCCCc1cc(O)c(C/C=C(\C)CCC=C(C)C)c(O)c1-c1c(C)noc1C` [Compound 37, 4-(3,5-dimethylisoxazol-4-yl)-2-(3,7-dimethylocta-2,6-dien-1-yl)-5-pentylbenzene-1,3-diol] registered an IC50 in assay [1] of over 5000 nM. For the same compound, in assay [2], the 50% inhibitory concentration (IC50) lay in the range of 1000 to 4990 nM and the “Selectivity CB2” value was determined as 7.14 fold.

As to `CCCCCc1cc(O)c(C/C=C(\C)CCC=C(C)C)c(O)c1-c1ccncc1` [Compound 14, 2-(3,7-dimethylocta-2,6-dien-1-yl)-5-pentyl-4-(pyridin-4-yl)benzene-1,3-diol], the IC50 fell in the range of 1000 to 4990 nM in assay [1] and 500 to 990 nM in assay [2]. Further, the “Selectivity CB2” value in assay [2] is on record as 2.27 fold.

In the case of `CCCCCc1cc(O)c(C/C=C(\C)CCC=C(C)C)c(O)c1-c1cc(C)cs1` [Compound 34, 2-(3,7-dimethylocta-2,6-dien-1-yl)-4-(4-methylthiophen-2-yl)-5-pentylbenzene-1,3-diol], the half-maximal inhibitory concentration (IC50) in assay [1] is 500 to 990 nM; in assay [2], under 500 nM. The “Selectivity CB2” value in assay [2] was determined as 2.15 fold.

Regarding `CCCCCc1cc(O)c(C/C=C(\C)CCC=C(C)C)c(O)c1-c1cc2ccccc2s1` [Compound 33, 4-(benzo[b]thiophen-2-yl)-2-(3,7-dimethylocta-2,6-dien-1-yl)-5-pentylbenzene-1,3-diol], the IC50 in assay [1] was in the range of 1000 to 4990 nM. In assay [2], the IC50 was in the range of 500 to 990 nM and the “Selectivity CB2” value was 1.45 fold.

Source of the values: US20230122510A1, “CANNABINOID DERIVATIVES” (CANOPY GROWTH CORPORATION, priority 2019, published 2023).
